Assays:
[1] = tested on: CBR (central benzodiazepine binding sites, rat cerebral cortex membranes); assay: [3H] Ro 15-1788 binding, central benzodiazepine receptor; settings: 10 and 100 μM
[2] = target: PBR (peripheral benzodiazepine binding sites, rat kidney mitochondrial membranes) (Rattus norvegicus, UniProt P16257); assay: [3H]-PK 11195 binding, peripheral benzodiazepine receptor; settings: 10 and 100 μM
Sequence of PBR (peripheral benzodiazepine binding sites, rat kidney mitochondrial membranes) (P16257 whole entry): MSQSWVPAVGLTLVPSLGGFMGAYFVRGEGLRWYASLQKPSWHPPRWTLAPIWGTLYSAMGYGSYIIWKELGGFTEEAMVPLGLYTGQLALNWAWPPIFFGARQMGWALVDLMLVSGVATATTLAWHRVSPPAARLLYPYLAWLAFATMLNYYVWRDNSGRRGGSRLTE

SMILES | affinity for CBR [1] | affinity for PBR [2]
CCOC(=O)c1ncn2c1CN(C)C(=O)c1cc(F)ccc1-2 [Ro 15–1788] | high affinity | –
CN1C(=O)CN=C(c2ccccc2)c2cc(Cl)ccc21 [diazepam] | high affinity | high affinity
CCC(C)N(C)C(=O)c1cc2ccccc2c(-c2ccccc2Cl)n1 (stereo not shown) [PK 11195, 1-(2-chlorophenyl)-N-methyl-N-(1-methylpropyl)-3-isoquinoline carboxamide] | – | high affinity
